{"source": "patent US12077503B2", "about": "“Substituted cyclic amides and their use as herbicides” (FMC CORPORATION, priority 2015, dated 2024)", "type_in_all_cases": "in vivo", "key": {"[1]": {"test_system": "giant foxtail (Setaria faberii)", "assay": "Test A preemergence", "conditions": "Setaria faberi, pre-emergence, 240 h, preemergence, 0 to 100 scale where 0 is no effect and 100 is complete control, read-out: Foxtail, Giant plant response rating", "method_in_brief": "(§1)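 Greenhouse, ~10 d after spray; visual injury vs untreated controls, 0 = no effect, 100 = complete control. Preemergence: directed soil spray over planted seeds. Postemergence: plants 2–10 cm, 1–2 leaf stage. Loam/sand blend. Compound in non-phytotoxic solvent with surfactant.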"}, "[2]": {"test_system": "Galium (catchweed bedstraw, Galium aparine)", "assay": "Test A postemergence", "conditions": "Galium, post-emergence, 240 h, postemergence", "method_in_brief": "as §1"}, "Kochia (Kochia scoparia)": {"test_system": "Kochia (Kochia scoparia)", "assay": "Test A postemergence", "conditions": "Bassia scoparia, post-emergence, 240 h, postemergence", "method_in_brief": "as §1"}, "[3]": {"test_system": "barnyardgrass (Echinochloa crus-galli)", "assay": "Test A postemergence", "conditions": "Echinochloa crus-galli, post-emergence, 240 h, postemergence", "method_in_brief": "as §1"}, "[4]": {"test_system": "blackgrass (Alopecurus myosuroides)", "assay": "Test A postemergence", "conditions": "Alopecurus myosuroides, post-emergence, 240 h, postemergence", "method_in_brief": "as §1"}, "corn (Zea mays)": {"test_system": "corn (Zea mays)", "assay": "Test A postemergence", "conditions": "Zea mays, post-emergence, 240 h, postemergence", "method_in_brief": "as §1"}, "[5]": {"test_system": "giant foxtail (Setaria faberii)", "assay": "Test A postemergence", "conditions": "Setaria faberi, post-emergence, 240 h, postemergence", "method_in_brief": "as §1"}, "[6]": {"test_system": "pigweed (Amaranthus retroflexus)", "assay": "Test A postemergence", "conditions": "Amaranthus retroflexus, post-emergence, 240 h, postemergence", "method_in_brief": "as §1"}, "[7]": {"test_system": "ragweed (common ragweed, Ambrosia elatior)", "assay": "Test A postemergence", "conditions": "Ambrosia artemisiifolia, post-emergence, 240 h, postemergence", "method_in_brief": "as §1"}, "[8]": {"test_system": "ryegrass, Italian (Italian ryegrass, Lolium multiflorum)", "assay": "Test A postemergence", "conditions": "Lolium multiflorum, post-emergence, 240 h, postemergence", "method_in_brief": "as §1"}, "[9]": {"test_system": "wheat (Triticum aestivum)", "assay": "Test A postemergence", "conditions": "Triticum aestivum, post-emergence, 240 h, postemergence", "method_in_brief": "as §1"}, "[10]": {"test_system": "barnyardgrass (Echinochloa crus-galli)", "assay": "Test B flooded paddy test", "conditions": "Echinochloa crus-galli, 250 g ai/ha, Flood; 0 to 100 scale where 0 is no effect and 100 is complete control; read-out: Barnyardgrass plant response rating", "method_in_brief": "(§2)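 Plants at 2-leaf stage flooded to 3 cm above soil, with compounds applied directly to paddy water and that depth maintained. Plants kept in greenhouse 13–15 d. Visual rating versus controls on a 0 (no effect) to 100 (complete control) scale.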"}, "[11]": {"test_system": "ducksalad (Heteranthera limosa)", "assay": "Test B flooded paddy test", "conditions": "Heteranthera limosa, 250 g ai/ha, Flood; 0 to 100 scale where 0 is no effect and 100 is complete control; read-out: Ducksalad plant response rating", "method_in_brief": "as §2"}, "rice (Oryra sativa)": {"test_system": "rice (Oryra sativa)", "assay": "Test B flooded paddy test", "conditions": "Oryza sativa, 250 g ai/ha, Flood; 0 to 100 scale where 0 is no effect and 100 is complete control; read-out: Rice plant response rating", "method_in_brief": "as §2"}, "[12]": {"test_system": "sedge, umbrella (small-flower umbrella sedge, Cyperus difformis)", "assay": "Test B flooded paddy test", "conditions": "Cyperus difformis, 250 g ai/ha, Flood; 0 to 100 scale where 0 is no effect and 100 is complete control; read-out: Sedge, Umbrella plant response rating", "method_in_brief": "as §2"}}, "data": [{"smiles": "CN1C[C@H](c2ccc(C#N)cc2)[C@@H](C(=O)Nc2ccccc2F)C1=O", "note": "[Compound 1207]", "values": [{"measurement": "pest or weed control at 125 g/ha", "setting": "[1]; 125 g ai/ha, visual injury rating, approximately 10 d", "value": 80, "unit": "%"}, {"measurement": "pest or weed control at 500 g/ha", "setting": "[1]; 500 g ai/ha", "value": 100, "unit": "%"}, {"measurement": "pest or weed control at 125 g/ha", "setting": "[2]; 125 g ai/ha, visual injury vs untreated controls after approx. 10 d, 0 = no effect, 100 = complete control, read-out: Galium plant response rating (0 to 100 scale)", "value": 20, "unit": "%"}, {"measurement": "pest or weed control at 500 g/ha", "setting": "[2]; 500 g ai/ha, 0 to 100 scale, 0 is no effect, 100 is complete control, read-out: Galium plant response rating", "value": 40, "unit": "%"}, {"measurement": "pest or weed control at 125 g/ha", "setting": "Kochia (Kochia scoparia); 125 g ai/ha, visual injury vs untreated controls after approx. 10 d, 0 = no effect, 100 = complete control, read-out: Kochia plant response rating (0 to 100 scale)", "value": 20, "unit": "%"}, {"measurement": "pest or weed control at 500 g/ha", "setting": "Kochia (Kochia scoparia); 500 g ai/ha, 0 to 100 scale, 0 is no effect, 100 is complete control, read-out: Kochia plant response rating", "value": 60, "unit": "%"}, {"measurement": "pest or weed control at 125 g/ha", "setting": "[3]; 125 g ai/ha, visual injury vs untreated controls after approx. 10 d, 0 = no effect, 100 = complete control, read-out: Barnyardgrass plant response rating (0 to 100 scale)", "value": 70, "unit": "%"}, {"measurement": "pest or weed control at 500 g/ha", "setting": "[3]; 500 g ai/ha, 0 to 100 scale, 0 is no effect, 100 is complete control, read-out: Barnyardgrass plant response rating", "value": 100, "unit": "%"}, {"measurement": "pest or weed control at 125 g/ha", "setting": "[4]; 125 g ai/ha, visual injury vs untreated controls after approx. 10 d, 0 = no effect, 100 = complete control, read-out: Blackgrass plant response rating (0 to 100 scale)", "value": 0, "unit": "%"}, {"measurement": "pest or weed control at 500 g/ha", "setting": "[4]; 500 g ai/ha, 0 to 100 scale, 0 is no effect, 100 is complete control, read-out: Blackgrass plant response rating", "value": 0, "unit": "%"}, {"measurement": "plant injury at 125 g/ha", "setting": "corn (Zea mays); 125 g ai/ha, visual injury vs untreated controls after approx. 10 d, 0 = no effect, 100 = complete control, read-out: Corn plant response rating (0 to 100 scale)", "value": 0, "unit": "%"}, {"measurement": "plant injury at 500 g/ha", "setting": "corn (Zea mays); 500 g ai/ha, 0 to 100 scale, 0 is no effect, 100 is complete control, read-out: Corn plant response rating", "value": 0, "unit": "%"}, {"measurement": "pest or weed control at 125 g/ha", "setting": "[5]; 125 g ai/ha, visual injury vs untreated controls after approx. 10 d, 0 = no effect, 100 = complete control, read-out: Foxtail, Giant plant response rating (0 to 100 scale)", "value": 50, "unit": "%"}, {"measurement": "pest or weed control at 500 g/ha", "setting": "[5]; 500 g ai/ha, 0 to 100 scale, 0 is no effect, 100 is complete control, read-out: Foxtail, Giant plant response rating", "value": 90, "unit": "%"}, {"measurement": "pest or weed control at 125 g/ha", "setting": "[6]; 125 g ai/ha, visual injury vs untreated controls after approx. 10 d, 0 = no effect, 100 = complete control, read-out: Pigweed plant response rating (0 to 100 scale)", "value": 0, "unit": "%"}, {"measurement": "pest or weed control at 500 g/ha", "setting": "[6]; 500 g ai/ha, 0 to 100 scale, 0 is no effect, 100 is complete control, read-out: Pigweed plant response rating", "value": 20, "unit": "%"}, {"measurement": "pest or weed control at 125 g/ha", "setting": "[7]; 125 g ai/ha, visual injury vs untreated controls after approx. 10 d, 0 = no effect, 100 = complete control, read-out: Ragweed plant response rating (0 to 100 scale)", "value": 0, "unit": "%"}, {"measurement": "pest or weed control at 500 g/ha", "setting": "[7]; 500 g ai/ha, 0 to 100 scale, 0 is no effect, 100 is complete control, read-out: Ragweed plant response rating", "value": 30, "unit": "%"}, {"measurement": "pest or weed control at 125 g/ha", "setting": "[8]; 125 g ai/ha, visual injury vs untreated controls after approx. 10 d, 0 = no effect, 100 = complete control, read-out: Ryegrass, Italian plant response rating (0 to 100 scale)", "value": 0, "unit": "%"}, {"measurement": "pest or weed control at 500 g/ha", "setting": "[8]; 500 g ai/ha, 0 to 100 scale, 0 is no effect, 100 is complete control, read-out: Ryegrass, Italian plant response rating", "value": 0, "unit": "%"}, {"measurement": "plant injury at 125 g/ha", "setting": "[9]; 125 g ai/ha, visual injury vs untreated controls after approx. 10 d, 0 = no effect, 100 = complete control, read-out: Wheat plant response rating (0 to 100 scale)", "value": 0, "unit": "%"}, {"measurement": "plant injury at 500 g/ha", "setting": "[9]; 500 g ai/ha, 0 to 100 scale, 0 is no effect, 100 is complete control, read-out: Wheat plant response rating", "value": 0, "unit": "%"}, {"measurement": "pest or weed control at 250 g/ha", "setting": "[10]", "value": 0, "unit": "%"}, {"measurement": "pest or weed control at 250 g/ha", "setting": "[11]", "value": 100, "unit": "%"}, {"measurement": "pest or weed control at 250 g/ha", "setting": "rice (Oryra sativa)", "value": 0, "unit": "%"}, {"measurement": "pest or weed control at 250 g/ha", "setting": "[12]", "value": 0, "unit": "%"}]}]}
